{"source": "patent US6856913B1", "about": "“Decentralized patient management method” (Swineburn Limited, priority 1998, dated 2005)", "tested_on": "children diagnosed with ADHD", "experiment": "SSVEP phase/latency change during the Continuous Performance Task (CPT A-X) before and one hour after stimulant medication", "assay_type": "in vivo, human", "conditions": "one hour after medication vs before", "method": "An example of the invention will now be briefly described with reference to FIGS. 15 and 16. The method was used on patients who are children diagnosed with Attention Deficit […] Disorder (ADHD).\nChildren diagnosed with ADHD were tested to examine the effects of stimulant medication (methylphenidate or Ritalin) on the amplitude and phase of the steady state visually evoked potential (SSVEP). The children performed two cognitive tasks before the stimulant medication was administered and then repeat the tasks one hour after stimulant medication was administered.\nThe first task was a low demand vigilance task where the patients were required to press a micro switch on the predictable appearance of the number “5” in the repeated sequence “1, 2, 3, 4, 5”. The second task was known as the A-X version of the Continuous Performance Task (CPT A-X). In this more demanding task, patients were required to press a micro switch on the appearance of the letter “X” if and only if it has been preceded by the letter “A”.\nFIGS. 15 and 16 illustrate the spatial distribution of the difference between the mean SSVEP phase, evaluated over the entire CPT A-X task before medication, and the point in time corresponding to the disappearance of the letter “A” in the CPT A-X task after medication."}
{"smiles": "COC(=O)C(c1ccccc1)C1CCCCN1", "note": "(centres unmarked) [methylphenidate]", "values": [{"measurement": "change in SSVEP phase (latency) at prefrontal sites", "setting": "FIG. 15, child diagnosed with ADHD and responding to the stimulant medication", "value": "large SSVEP latency reduction at prefrontal sites"}, {"measurement": "change in SSVEP phase (latency) at prefrontal sites", "setting": "FIG. 16, different child diagnosed with ADHD and not responding to stimulant medication", "value": "absence of SSVEP latency reduction at prefrontal sites"}]}
